System: Corynebacterium glutamicum strain DSM13994_Hdap_s
Test: Screening on LB agar plates containing 4-hydroxydiaminopimelic acid (growth of colonies)
Type: cell-based
Settings: 10 g/l in LB agar, observed over 48 hours; UV mutant clone DSM13994_Hdap_s compared to parent DSM13994
Protocol: For screening on colonies that are sensitive to 4-hydroxy-diaminopimelic acid, the strain DSM13994 after UV mutagenesis (Sambrook et al., Molecular Cloning: A Laboratory Manual. 2nd Edition, Cold Spring Harbor, New York, 1989) is plated out on LB agar plates containing 4-hydroxydiaminopimelic acid. The agar plates are supplemented with 10 g/l of 4-hydroxydiaminopimelic acid. The growth of the colonies is observed over 48 hours. At this concentration mutants sensitive to 4-hydroxydiamino-pimelic acid may be differentiated from the unaltered parent strain by a delayed growth. […] The strain is identified as DSM13994_Hdap_s.

## N[C@H](CC(O)C[C@H](N)C(=O)O)C(=O)O (stereo partly shown) [4-hydroxydiaminopimelic acid]
  growth of the colonies: substantially delayed growth
